Measured values reported in patent publication US9067898B1, “Isothiazole derivatives as GPR120 agonists for the treatment of type II diabetes” (Janssen Pharmaceutica NV, priority 2014, dated 2015).

Molecular target: T1, Human GPR120 short form (Homo sapiens, UniProt Q5NUL3)
T1 construct: expressed in transfected cells
T1 sequence (Q5NUL3 1-361): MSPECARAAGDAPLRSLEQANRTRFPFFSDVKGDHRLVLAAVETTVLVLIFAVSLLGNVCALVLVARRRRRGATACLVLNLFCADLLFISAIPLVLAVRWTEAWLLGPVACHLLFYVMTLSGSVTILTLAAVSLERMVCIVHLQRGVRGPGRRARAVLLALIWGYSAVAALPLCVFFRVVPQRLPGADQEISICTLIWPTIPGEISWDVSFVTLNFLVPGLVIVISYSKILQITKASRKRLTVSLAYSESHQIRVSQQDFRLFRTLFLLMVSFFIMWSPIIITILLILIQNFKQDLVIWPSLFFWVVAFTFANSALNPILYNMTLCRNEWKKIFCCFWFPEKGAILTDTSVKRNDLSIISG
Assay: Human GPR120 calcium flux assay (FLIPR), Procedure Calcium A
Format: cell-based
Settings: HEK-293 cells expressing human GPR120 short form, 2500 cells/well; read-out: GPR120 Ca2+ Assay A EC50
From the text: This in vitro assay serves to assess test compound agonist activity against the short splice variant (SVS with Accession number NM_001195755.1 confirmed by sequencing data) of the GPR120 receptor. The Human Short splice variant #2 (NM_001195755.1) is missing an in-frame coding exon compared to variant 1 (the Human Long splice variant NM_181745.3), resulting in a shorter isoform (GPR120-S) lacking a 16 aa protein segment compared to isoform GPR120-L. The assay platform utilizes HEK-293 cells stably transfected to express the Human GPR120 short form. These cells are first loaded with the Ca^+2 sensitive dye, Fluo-4 NW. Upon stimulation, intracellular released Ca^+2 can bind to the dye and alter its fluorescence intensity. This increase in fluorescence signal, and thus the flux in intracellular [Ca^2+], is detected and quantitated by fluorescence imaging using a FLIPR reader. The effect of the agonist is measured as a function of concentration and used to calculate an EC50 based upon a response curve.
In this procedure 2500 cells/well were employed.
A Human GPR120 clone (Genbank accession number NM_001195755.1) was placed into the pcDNA3.1 mammalian expression vector carrying the neomycin resistance gene. A stable mammalian cell was generated by placing the above clone into a HEK293 background. Clonal cells responding to long chain fatty acids had expression levels of GPR120 confirmed by RT-qPCR. Human HEK-GPR120 cells were cultured in Dulbecco's Modified Eagle's Medium (DMEM)/F12 medium supplemented with 10% fetal bovine serum (FBS), 1% L-Glutamine and 1% penicillin/streptomycin and 0.5 mg/ml G-418. Cells were split 2 times a week to keep the cells in the log-phase growth.
In preparation for the assay, HEK cells stably transfected with Human GPR120 (2.5K cells per well in 25 uL growth medium) were seeded into 384-well plates and then incubated overnight (37° C., 5% CO2). The next day, the media was changed to 20 μL assay buffer and the cell starved for 1 h at 37° C. The dye loading solution (2× dye) was prepared using 10 mL assay buffer, 100 μL of 250 mM probenecid, 1 bottle of Component A, and 20 μl of dye in DMSO. Twenty μL of the 2× dye loading buffer was then added to each well. The plates were incubated at 37° C. for 30 min, then at room temperature for an additional 15 minutes, before performing the assay on FLIPR. Test compounds were prepared in assay buffer (2 uL of cpd+198 uL assay buffer, final DMSO in assay plate is 0.2%) at the desired concentration, more particularly at 100, 50, 25, 12.5, 6.25, 3.125, 1.562, 0.781, 0.391, 0.195, 0.098, 0.049, 0.024 and 0.012 μM.
The assay was performed on a FLIPR plate reader using the following parameters. Baseline was read for 10 seconds at 1 sec intervals. The program was set to transfer 10 μL of ligand from compound plate to cell plate after baseline reading. Aspiration was executed at: 10 μL/sec speed, 4.6 μL height; Dispensing was executed at: 30 μL/sec speed, 45 μL height. After compound addition, each well was read for 300 sec, with measurements collected at 1 sec intervals.
The kinetic data from the FLIPR was based upon a 5 minute window for data collection. The fluorescence of each sample well was used for individual calculations of a normalized RFU value, which was defined as maximum response minus the minimum response. The normalized fluorescence reading (RFU) was calculated as follows: RFU=Fmax−Fmin The data were fitted to a sigmoidal dose-response curve with a variable Hill slope (<2) using nonlinear regression with GraphPad Prism 5.0 to calculate the EC50 values. The Fitting Equation was: Y=Bottom+(Top−Bottom)/(1+10^((Log EC50−X)*HillSlope)), where X is the log of the concentration and Y is the response.

CCc1ccc(-c2nsc(C(F)(F)F)c2COc2ccc(CCC(=O)O)c(F)c2C(F)(F)F)cc1 [Cpd 157, 3-(4-[[3-(4-ethylphenyl)-5-(trifluoromethyl)-1,2-thiazol-4-yl]methoxy]-2-fluoro-3-(trifluoromethyl)phenyl)propanoic acid]
EC50: 188 nM

CCc1ccc(-c2sncc2COc2ccc(CCC(=O)O)c(C)c2C)cc1 [Cpd 158, 3-(4-[[5-(4-ethylphenyl)-1,2-thiazol-4-yl]methoxy]-2,3-dimethylphenyl)propanoic acid]
EC50: 191 nM

C#Cc1ccc(-c2nscc2COc2ccc(CCC(=O)O)c(C)c2C)cc1 [Cpd 161, 3-(4-((3-(4-ethynylphenyl)isothiazol-4-yl)methoxy)-2,3-dimethylphenyl)propanoic acid]
EC50: 202 nM

CCc1ccc(-c2nsc(C(F)(F)F)c2COc2c(F)cc(C3CC3C(=O)O)cc2F)cc1 (stereo not shown) [Cpd 163, 2-(4-[[3-(4-ethylphenyl)-5-(trifluoromethyl)-1,2-thiazol-4-yl]methoxy]-3,5-difluorophenyl)cyclopropane-1-carboxylic acid]
EC50: 203 nM

CCc1ccc(-c2nsc(C(F)(F)F)c2COc2ccc3c(c2)CCC3CC(=O)O)cc1 (stereo not shown) [Cpd 176, 2-(5-[[3-(4-ethylphenyl)-5-(trifluoromethyl)-1,2-thiazol-4-yl]methoxy]-2,3-dihydro-1H-inden-1-yl)acetic acid]
EC50: 261 nM

COc1cc(-c2nsc(C(F)(F)F)c2COc2c(F)cc(CCC(=O)O)cc2F)ccc1Cl [Cpd 177, 3-(4-((3-(4-chloro-3-methoxyphenyl)-5-(trifluoromethyl)isothiazol-4-yl)methoxy)-3,5-difluorophenyl)propanoic acid]
EC50: 263 nM

Cc1c(CCC(=O)O)ccc(OCc2c(-c3ccc(C(C)(F)F)cc3)nsc2C(F)(F)F)c1C [Cpd 178, 3-[4-([3-[4-(1,1-difluoroethyl)phenyl]-5-(trifluoromethyl)-1,2-thiazol-4-yl]methoxy)-2,3-dimethylphenyl]propanoic acid]
EC50: 263 nM

COc1ccc(-c2snc(OC)c2COc2c(F)cc(CCC(=O)O)cc2F)cc1 [Cpd 182, 3-(3,5-difluoro-4-[[3-methoxy-5-(4-methoxyphenyl)-1,2-thiazol-4-yl]methoxy]phenyl)propanoic acid]
EC50: 281 nM

COc1ccc(-c2snc(Cl)c2COc2ccc(CCC(=O)O)c(C)c2C)cc1 [Cpd 186, 3-(4-[[3-chloro-5-(4-methoxyphenyl)-1,2-thiazol-4-yl]methoxy]-2,3-dimethylphenyl)propanoic acid]
EC50: 303 nM

CCc1ccc(-c2nsc(C(F)(F)C(F)(F)F)c2COc2ccc(CCC(=O)O)c(C)c2C)cc1 [Cpd 192, 3-(4-[[3-(4-ethylphenyl)-5-(pentafluoroethyl)-1,2-thiazol-4-yl]methoxy]-2,3-dimethylphenyl)propanoic acid]
EC50: 332 nM

CCc1ccc(-c2nsc(C(C)(F)F)c2COc2ccc(CCC(=O)O)c(C)c2C)cc1 [Cpd 200, 3-(4-[[5-(1,1-difluoroethyl)-3-(4-ethylphenyl)-1,2-thiazol-4-yl]methoxy]-2,3-dimethylphenyl)propanoic acid]
EC50: 453 nM

O=C(O)CCc1cc(F)c(OCc2csnc2-c2ccc(Cl)s2)c(F)c1 [Cpd 202, 3-(4-((3-(5-chlorothiophen-2-yl)isothiazol-4-yl)methoxy)-3,5-difluorophenyl)propanoic acid]
EC50: 468 nM

Cc1c(CCC(=O)O)ccc(OCc2csnc2-c2ccc(Cl)s2)c1C [Cpd 204, 3-(4-((3-(5-chlorothiophen-2-yl)isothiazol-4-yl)methoxy)-2,3-dimethylphenyl)propanoic acid]
EC50: 496 nM

Cc1cc(OCc2c(-c3c(F)cc(Cl)cc3F)nsc2C(F)(F)F)c(F)cc1CCC(=O)O [Cpd 207, 3-(4-((3-(4-chloro-2,6-difluorophenyl)-5-(trifluoromethyl)isothiazol-4-yl)methoxy)-5-fluoro-2-methylphenyl)propanoic acid]
EC50: 566 nM

Cc1ccc(-c2snc(-c3ccccc3)c2COc2c(F)cc(CCC(=O)O)cc2F)c(F)c1 [Cpd 211, 3-(3,5-difluoro-4-[[5-(2-fluoro-4-methylphenyl)-3-phenyl-1,2-thiazol-4-yl]methoxy]phenyl)propanoic acid]
EC50: 597 nM

O=C(O)CCc1cc(F)c(OCc2c(C3CCOC3)nsc2C(F)(F)F)c(F)c1 (stereo not shown) [Cpd 214, 3-(3,5-difluoro-4-((3-(tetrahydrofuran-3-yl)-5-(trifluoromethyl)isothiazol-4-yl)methoxy)phenyl)propanoic acid]
EC50: 606 nM

CCc1ccc(-c2nsc(CC)c2COc2ccc(CCC(=O)O)c(C)c2C)cc1 [Cpd 217, 3-(4-[[5-ethyl-3-(4-ethylphenyl)-1,2-thiazol-4-yl]methoxy]-2,3-dimethylphenyl)propanoic acid]
EC50: 677 nM

CCCc1ccc(-c2snc(Cl)c2COc2ccc(CCC(=O)O)c(C)c2C)cc1 [Cpd 218, 3-(4-[[3-chloro-5-(4-propylphenyl)-1,2-thiazol-4-yl]methoxy]-2,3-dimethylphenyl)propanoic acid]
EC50: 688 nM

CCc1ccc(-c2nsc(C(F)(F)F)c2COc2ccc3c(c2)OCC3CCO)cc1 (stereo not shown) [Cpd 220, 2-(6-[[3-(4-ethylphenyl)-5-(trifluoromethyl)-5H-1[3],2-thiazol-4-yl]methoxy]-2,3-dihydro-1-benzofuran-3-yl)ethan-1-ol]
EC50: 702 nM

O=C(O)CCc1ccc(OCc2csnc2-c2ccc(Cl)s2)c(F)c1F [Cpd 226, 3-(4-((3-(5-chlorothiophen-2-yl)isothiazol-4-yl)methoxy)-2,3-difluorophenyl)propanoic acid]
EC50: 849 nM

CCc1ccc(-c2nsc(OC)c2COc2ccc(CCC(=O)O)c(C)c2C)cc1 [Cpd 228, 3-(4-[[3-(4-ethylphenyl)-5-methoxy-1,2-thiazol-4-yl]methoxy]-2,3-dimethylphenyl)propanoic acid]
EC50: 923 nM

Cc1ccc(-c2snc(C(F)(F)F)c2COc2ccc(CCC(=O)O)c(C(F)(F)F)c2)c(C)c1 [Cpd 232, 3-(4-[[5-(2,4-dimethylphenyl)-3-(trifluoromethyl)-1,2-thiazol-4-yl]methoxy]-2-(trifluoromethyl)phenyl)propanoic acid]
EC50: 1090 nM

CCc1ccc(-c2nsc(-c3ccccc3)c2COc2ccc(CCC(=O)O)c(C)c2C)cc1 [Cpd 233, 3-(4-[[3-(4-ethylphenyl)-5-phenyl-1,2-thiazol-4-yl]methoxy]-2,3-dimethylphenyl)propanoic acid]
EC50: 1100 nM

O=C(O)CCc1cc(Br)c(OCc2c(-c3ccc(Cl)cc3)nsc2C(F)(F)F)c(Br)c1 [Cpd 241, 3-(3,5-dibromo-4-[[3-(4-chlorophenyl)-5-(trifluoromethyl)-1,2-thiazol-4-yl]methoxy]phenyl) propanoic acid]
EC50: 450 nM

CCc1ccc(-c2nsc(C(F)(F)F)c2COc2ccc(CCC(=O)O)c(C(F)(F)F)c2C)cc1 [Cpd 242, 3-(4-[[3-(4-ethylphenyl)-5-(trifluoromethyl)-1,2-thiazol-4-yl]methoxy]-3-methyl-2-(trifluoro-methyl)phenyl)propanoic acid]
EC50: 1290 nM
